In patent US9242944B2 (UNIVERSITY OF MARYLAND, BALTIMORE, priority 2013, dated 2016):
Entries after “also recorded” stand apart in the source; their conditions may differ. Where two headings read alike, the source gives them in different places.

Legend:
c-Myc-Max heterodimers = biological target: T1, c-Myc-Max heterodimers (Homo sapiens, UniProt P01106); assay: Electrophoretic mobility shift assay (EMSA) of c-Myc-Max dimerization and DNA binding
T1 construct: c-Myc bHLH-ZIP domain (residues 353-437); His6-TEV protease substrate tag; made in house; host or cells: bacteria (pET151 vector for Myc)
Description: The ability of a small-molecule to interfere with c-Myc-Max dimerization is conveniently assessed through the disruption of the c-Myc-Max/DNA ternary complex by an electrophoretic mobility shift assay (EMSA) using fluorescently-labelled DNA, and subsequently quantified by densitometry.(23) Accordingly, a 100-member library was screened for the ability to disrupt the c-Myc-Max dimer.
These were performed essentially as described previously (23). Briefly, Ni^+-agarose-purified His6-tagged c-Myc bHLH-ZIP domain (residues 353-437) was used for all binding assays as was the His6-tagged 151 residue isoform of Max, otherwise referred to as Max(S) (residues 2-151) (21). For each binding reaction, the proteins were allowed to heterodimerize at a concentration of 30 nM each in the presence of 20 nM of a 5′-HEX-tagged double-stranded 22-base pair oligonucleotide 5′-hexachlorofluoresceine-[…]-3′ (SEQ ID NO: 1) containing a consensus c-Myc binding site (CACGTG) and the indicated concentration of small molecule inhibitor. Control reactions contained the same oligonucleotide in the presence of 60 nM of the 160 residue isoform of Max referred to as Max(L) (21). All binding reactions were prepared in a buffer consisting of PBS (pH 7.3), 1 mmol/L EDTA, 0.1% NP40, 5% glycerol, 1 mmol/L DTT, and 0.4 mg/mL bovine serum albumin. Electrophoresis was performed on 8% polyacrylamide/bisacrylamide (80:1) gels in […] (23). Each reaction was run on at least three separate occasions.
EMSAs were performed essentially as described utilizing bacterially-expressed recombinant proteins purified nearly to homogeneity.(23) Experiments with Max homodimers used the His6-tagged 160 amino acid isoform of the protein, termed Max(L), which homodimerizes and binds DNA well. For studies with Myc-Max heterodimers, the His6-tagged 151 residue isoform of Max [Max(S)] was used, which binds DNA well as a heterodimer with Myc but poorly as a homodimer.(23) Recombinant Myc protein, expressed in the pET151 vector, consisted of the His6-TEV protease substrate-tagged 85 amino acid bHLH-ZIP domain. (23) Each protein was purified by Ni-agarose affinity chromatography as previously described. (23) The His6-TEV tag was removed from the Myc protein by TEV protease cleavage followed by re-purification using Ni-agarose affinity chromatography to remove the His6-TEV protease and the cleaved His6-TEV tag as previously described. Binding assays were performed with 30 nM of each protein and 30 nM of a 6-carboxy-2′,4,4′,5′,7,7′-hexachlorofluorescein (HEX)-tagged double-stranded oligonucleotide containing a consensus Myc binding site (IDT, Coralville, Iowa).(23)

Max-Max homodimers = biological target: T2, Max-Max homodimers (Homo sapiens, UniProt P61244); assay: EMSA of Max-Max homodimerization and DNA binding; settings: 50% inhibition of Max-Max dimerization and DNA binding in EMSAs
T2 construct: His6; made in house; host or cells: bacteria

HL60 cells [1] = assay: Growth inhibition (MTT assay) in HL60 cells; assay type: cell-based, human; settings: 10-point serial dilution, quadruplicate; for IC50: read-out: IC50 HL60
Description: (§1) These were performed using HL60 human promyelocytic leukemia cells or Daudi Burkitt lymphoma cells essentially as described previously (23). Briefly, cells were seeded into 96 well dishes (5000 cells/well and 10,000 cells/well for HL60 and Daudi cells, respectively). Growth medium consisted of RPMI medium supplemented with Penicillin/Streptomycin, glutamine and 10% fetal bovine serum. The indicated concentrations of each compound were then added and 10-point growth inhibition assays were performed 3-5 days later using the MTT assay. Each point was performed in quadruplicate.
(§2) Daudi Burkitt lymphoma and HL60 promyelocytic leukemia cells were maintained in RPMI medium supplemented with 10% fetal bovine serum.(23) For growth inhibition studies, 3×10^3 cells were seeded in 96 well plates in the presence of serial dilutions of each compound. A total of 10 dilutions, ranging from 0.1 to 50 μM were performed for each compound. Standard MTT assays (23) were used to quantify cell number 3-4 days later and compared to wells exposed to DMSO vehicle only.

Daudi cells = assay: Growth inhibition (MTT assay) in Daudi cells; assay type: cell-based; settings: 10-point serial dilution, quadruplicate; for IC50: read-out: IC50 Daudi
Description: as §1, §2

c-Myc-Max dimerization = biological target: T3, c-Myc-Max dimerization (Homo sapiens, UniProt P01106); assay: Co-immunoprecipitation (Co-IP) of c-Myc with Max in HL60 cells; assay type: cell-based
T3 construct: endogenous in cells; host or cells: HL60
Description: Co-IP assays were performed essentially as described previously.(23) Briefly, 5×10^6 HL60 cells (>90% viable) in log-phase growth were treated in suspension for 4-6 h with the stated concentration of 3jc48-3. As a negative control, samples exposed to DMSO vehicle only were included and processed in parallel. Treated cells were collected by centrifugation, washed twice in ice-cold PBS and lysed in IP Buffer. 300 μg of cleared lysate was then precipitated with a 1:200 dilution of anti-Max antibody(23) followed by subsequent precipitation with protein G-Sepharose using conditions recommended by the supplier (Santa Cruz Biotechnology, Inc. Santa Cruz, Calif.). The precipitate was washed three times in IP buffer, boiled in running buffer and resolved by 10% SDS-PAGE. After electrotransfer of the proteins to a PVDF membrane (Millipore Corp. Billercica, Mass.), the blot was probed with a 1:1000 dilution of anti-Myc monoclonal antibody (9E10, Santa Cruz Biotechnology, Santa Cruz, Calif.). Blots were developed using a Pierce ECL Plus enhanced chemiluminescence kit according to the directions of the supplier (Thermo-Fisher, Pittsburgh, Pa.).

HL60 cells [2] = assay: Cell cycle analysis (propidium iodide, flow cytometry); assay type: cell-based; settings: 24 h
Description: Sub-confluent cultures of cells at >90% viability were plated into fresh medium at densities that were typically about 10% of those attained at the point of density arrest. The next day, Myc inhibitors at the stated concentrations were added for 24-48 hr. The cells were then harvested, washed twice in PBS and stained with propidium iodide as previously described(23). Cell cycle analyses were performed on a BD FACSCalibur™ flow cytometer (Becton Dickinson, Inc. Franklin Lakes, N.J.) and analyzed using ModFit LT 3.3 (Verity Software House, Topsham, Me.).

[3] = test system: c-Myc-responsive promoter; assay: Myc reporter gene expression (luciferase) in HeLa cells; assay type: cell-based; settings: markedly diminished within 6 h of compound addition
Text: The generic reporter vector pGL4.28(luc2CP/minP/Hygro) (Promega Corp., Madison Wis.), which is specifically designed to reduce anomalous transcription and which contains a highly de-stabilized luciferase reporter was used to assess the effects of Myc inhibitors. […] A control vector containing this same oligonucleotide with mutant E-box sites ([NT] ID NO: 3) was used as a negative control. […] After automated DNA sequencing to confirm the identity of its respective insert, each vector was then separately co-transfected into HeLa cells together with the vector pFR400, which encodes a mutant form of dihydrofolate reductase that facilitates the step-wise amplification of the plasmid and any co-transfected sequences in the presence of increasing concentrations of the folate antagonist methotrexate (MTX). After first selecting for stably transfected cells by growth in hygromycin, the resistant clones were pooled and grown in serial four-fold increasing concentrations of MTX ranging from […]), thus allowing the luciferase signal originating from the first vector to be easily detected above background. No luciferase signal over background values could be obtained in unamplified cells or in amplified cells transfected with the mutant E-box-containing vector. […]

T1 sequence (P01106 368-452, one chain of several): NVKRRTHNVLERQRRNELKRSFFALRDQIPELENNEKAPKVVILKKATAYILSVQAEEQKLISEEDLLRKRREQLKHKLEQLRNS
T2 sequence (P61244 whole entry): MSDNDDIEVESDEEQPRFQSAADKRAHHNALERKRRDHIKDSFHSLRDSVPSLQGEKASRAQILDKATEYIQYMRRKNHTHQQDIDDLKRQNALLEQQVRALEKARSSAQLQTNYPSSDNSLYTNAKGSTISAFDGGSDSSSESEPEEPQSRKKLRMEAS
T3 sequence (P01106 16-454 limits assumed): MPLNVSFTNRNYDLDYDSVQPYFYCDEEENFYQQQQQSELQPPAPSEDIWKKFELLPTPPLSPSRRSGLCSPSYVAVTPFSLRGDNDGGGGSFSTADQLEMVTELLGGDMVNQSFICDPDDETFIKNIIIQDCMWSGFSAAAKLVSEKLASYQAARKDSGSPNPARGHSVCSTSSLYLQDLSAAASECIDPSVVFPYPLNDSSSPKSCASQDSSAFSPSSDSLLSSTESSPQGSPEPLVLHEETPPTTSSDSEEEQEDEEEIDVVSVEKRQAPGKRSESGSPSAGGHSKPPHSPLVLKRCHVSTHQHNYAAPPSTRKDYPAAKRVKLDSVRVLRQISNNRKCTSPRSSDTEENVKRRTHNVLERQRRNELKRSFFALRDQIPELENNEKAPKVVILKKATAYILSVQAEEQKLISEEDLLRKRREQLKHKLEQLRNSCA

IC50 (c-Myc-Max heterodimers; 50% inhibition of c-Myc-Max dimerization and DNA binding in EMSAs): 34.8 µM | c-Myc-Max inhibitory potency relative to 10074-G5 (c-Myc-Max heterodimers; EMSA): approximately five-fold improvement | inhibition at 100 µM (c-Myc-Max heterodimers; Table 10, 100 μM small-molecule, EMSA, read-out: % Inhibition of c-Myc-Max Dimerization): 94% | IC50 (Max-Max homodimers): 60.6 µM | IC50 (HL60 cells [1]; Homo sapiens, HL-60, MTT assay): 3.8 µM | IC50 HL60 (HL60 cells [1]; MTT assay): single-digit micromolar | IC50 (HL60 cells [1]; MTT assay): 3.5 ± 0.54 µM | IC50 Daudi (Daudi cells): single-digit micromolar | IC50 (Daudi cells): 1.28 ± 0.73 µM | IC50 (Daudi cells; Homo sapiens, Daudi): 1.3 µM
Compound: COC(=O)c1ccc(Nc2ccc([N+](=O)[O-])c3nonc23)c(-c2ccc(C)cc2)c1 [Compound 3jc48-3, Methyl 4′-methyl-6-((7-nitrobenzo[c][1,2,5]oxadiazol-4-yl)amino)-[1,1′-biphenyl]-3-carboxylate]
selectivity for Myc-Max heterodimers over Max-Max homodimers (c-Myc-Max heterodimers; EMSA): about two-fold selective; also recorded: two-fold selectivity | disruption of c-Myc-Max dimerization in cells (co-IP) (c-Myc-Max dimerization): capable of disrupting c-Myc-Max dimerization within cells | cell cycle arrest, cells in G0/G1 (HL60 cells [2]): blocking progression of the cell cycle beyond the G0/G1 phase; also recorded: dose-dependently increased the percentage of HL60 cells in the G0/G1 stage | inhibition of luciferase reporter under c-Myc-responsive vs NF-κB-responsive promoter [3]: selectively inhibits the expression of the luciferase gene under the control of a c-Myc promoter; also recorded: selectively inhibited the c-Myc-driven gene
